# Source: the OligoGym collection
# Several values for one entry are separate records, joined by “and”; a condition that tells them apart may be missing. Equal values may be shown once. After the bases stand the sugars from the 5' end (letter, count) and the backbone: PS all phosphorothioate, else s phosphorothioate and o phosphodiester by linkage. HELM strings list units from the 5' end as sugar, base in round brackets, then linkage (d deoxyribose, r ribose, m 2'-O-methyl, p phosphodiester). Methylation of C is not given here. [moe] = 2'-O-(2-methoxyethyl) (MOE); [cEt] = constrained ethyl (cEt); [sp] = phosphorothioate linkage; e = 2'-O-(2-methoxyethyl) (MOE); k = constrained ethyl (cEt); d = 2'-deoxy (DNA)
# Molecular target: HBV
# Settings: ASO, HepG2, 0.07 µM
row,Substance,target mRNA inhibition
1,RNA1{[moe](G)[sp].[moe](G)[sp].d(T)[sp].d(G)[sp].d(A)[sp].d(A)[sp].d(G)[sp].d(C)[sp].d(G)[sp].d(A)[sp].d(A)[sp].[moe](G)[sp].[moe](T)[sp].[moe](G)[sp].[moe](C)[sp].[moe](A)[sp].[moe](C)}$$$$V2.0,77% and 71%
2,RNA1{[moe](G)[sp].[moe](G)[sp].d(T)[sp].d(G)[sp].d(A)[sp].d(A)[sp].d(G)[sp].d(C)[sp].d(G)[sp].d(A)[sp].d(A)[sp].[moe](G)[sp].[moe](T)[sp].[moe](G)[sp].[moe](C)[sp].[moe](A)}$$$$V2.0,65% and 62%
3,RNA1{[moe](G)[sp].[moe](T)[sp].[moe](G)[sp].[moe](C)[sp].d(A)[sp].d(G)[sp].d(A)[sp].d(G)[sp].d(G)[sp].d(T)[sp].d(G)[sp].d(A)[sp].d(A)[sp].[moe](G)[sp].[moe](C)[sp].[moe](G)[sp].[moe](A)}$$$$V2.0,62% and 54%
4,RNA1{[moe](G)[sp].[moe](T)[sp].[moe](G)[sp].[moe](C)[sp].d(A)[sp].d(G)[sp].d(A)[sp].d(G)[sp].d(G)[sp].d(T)[sp].d(G)[sp].d(A)[sp].d(A)[sp].[moe](G)[sp].[moe](C)[sp].[moe](G)}$$$$V2.0,64% and 63%
5,RNA1{[moe](G)[sp].[moe](T)[sp].[moe](G)[sp].d(C)[sp].d(A)[sp].d(G)[sp].d(A)[sp].d(G)[sp].d(G)[sp].d(T)[sp].d(G)[sp].d(A)[sp].d(A)[sp].[cEt](G)[sp].[cEt](C)[sp].[cEt](G)}$$$$V2.0,78% and 74%
6,RNA1{[moe](G)[sp].[moe](T)[sp].[moe](T)[sp].[moe](C)[sp].[moe](C)[sp].[moe](G)[sp].d(C)[sp].d(A)[sp].d(G)[sp].d(T)[sp].d(A)[sp].d(T)[sp].d(G)[sp].d(G)[sp].d(A)[sp].[moe](T)[sp].[moe](C)}$$$$V2.0,74% and 57%
7,RNA1{[moe](G)[sp].[moe](T)[sp].d(G)[sp].d(A)[sp].d(A)[sp].d(G)[sp].d(C)[sp].d(G)[sp].d(A)[sp].d(A)[sp].d(G)[sp].[moe](T)[sp].[moe](G)[sp].[moe](C)[sp].[moe](A)[sp].[moe](C)[sp].[moe](A)}$$$$V2.0,73% and 68%
8,RNA1{[moe](G)[sp].[moe](T)[sp].d(G)[sp].d(C)[sp].d(A)[sp].d(G)[sp].d(A)[sp].d(G)[sp].d(G)[sp].d(T)[sp].d(G)[sp].[moe](A)[sp].[moe](A)[sp].[moe](G)[sp].[moe](C)[sp].[moe](G)}$$$$V2.0,53% and 42%
9,RNA1{[moe](T)[sp].[cEt](A)[sp].[cEt](T)[sp].d(G)[sp].d(C)[sp].d(C)[sp].d(T)[sp].d(A)[sp].d(C)[sp].d(A)[sp].d(G)[sp].d(C)[sp].d(C)[sp].[cEt](T)[sp].[cEt](C)[sp].[moe](C)}$$$$V2.0,55% and 36%
10,RNA1{[moe](T)[sp].[cEt](G)[sp].d(A)[sp].d(G)[sp].d(A)[sp].d(G)[sp].d(A)[sp].d(A)[sp].d(G)[sp].d(T)[sp].d(C)[sp].d(C)[sp].[cEt](A)[sp].[moe](C)[sp].[cEt](C)[sp].[moe](A)}$$$$V2.0,60% and 43%
11,RNA1{[moe](T)[sp].[cEt](G)[sp].d(A)[sp].d(G)[sp].d(G)[sp].d(C)[sp].d(A)[sp].d(T)[sp].d(A)[sp].d(G)[sp].d(C)[sp].d(A)[sp].[cEt](G)[sp].[moe](C)[sp].[cEt](A)[sp].[moe](G)}$$$$V2.0,69% and 75%
12,RNA1{[moe](T)[sp].[cEt](T)[sp].[cEt](C)[sp].d(C)[sp].d(G)[sp].d(C)[sp].d(A)[sp].d(G)[sp].d(T)[sp].d(A)[sp].d(T)[sp].d(G)[sp].d(G)[sp].[cEt](A)[sp].[cEt](T)[sp].[moe](C)}$$$$V2.0,47% and 61%
13,RNA1{[moe](T)[sp].[cEt](T)[sp].[cEt](T)[sp].d(A)[sp].d(T)[sp].d(G)[sp].d(C)[sp].d(C)[sp].d(T)[sp].d(A)[sp].d(C)[sp].d(A)[sp].d(G)[sp].[cEt](C)[sp].[cEt](C)[sp].[moe](T)}$$$$V2.0,55% and 49%
14,RNA1{[moe](T)[sp].[moe](A)[sp].[moe](T)[sp].[moe](G)[sp].d(C)[sp].d(C)[sp].d(T)[sp].d(A)[sp].d(C)[sp].d(A)[sp].d(G)[sp].d(C)[sp].d(C)[sp].[moe](T)[sp].[moe](C)[sp].[moe](C)}$$$$V2.0,33% and 42%
15,RNA1{[moe](T)[sp].[moe](A)[sp].[moe](T)[sp].d(G)[sp].d(C)[sp].d(C)[sp].d(T)[sp].d(A)[sp].d(C)[sp].d(A)[sp].d(G)[sp].d(C)[sp].d(C)[sp].[cEt](T)[sp].[cEt](C)[sp].[cEt](C)}$$$$V2.0,39% and 45%
16,RNA1{[moe](T)[sp].[moe](A)[sp].d(T)[sp].d(G)[sp].d(C)[sp].d(C)[sp].d(T)[sp].d(A)[sp].d(C)[sp].d(A)[sp].d(G)[sp].[moe](C)[sp].[moe](C)[sp].[moe](T)[sp].[moe](C)[sp].[moe](C)}$$$$V2.0,54% and 55%
17,RNA1{[moe](T)[sp].[moe](G)[sp].[moe](A)[sp].[moe](A)[sp].d(G)[sp].d(C)[sp].d(G)[sp].d(A)[sp].d(A)[sp].d(G)[sp].d(T)[sp].d(G)[sp].d(C)[sp].[moe](A)[sp].[moe](C)[sp].[moe](A)[sp].[moe](C)}$$$$V2.0,62% and 51%
18,RNA1{[moe](T)[sp].[moe](G)[sp].[moe](A)[sp].[moe](A)[sp].d(G)[sp].d(C)[sp].d(G)[sp].d(A)[sp].d(A)[sp].d(G)[sp].d(T)[sp].d(G)[sp].d(C)[sp].[moe](A)[sp].[moe](C)[sp].[moe](A)}$$$$V2.0,43% and 52%
19,RNA1{[moe](T)[sp].[moe](G)[sp].[moe](A)[sp].[moe](G)[sp].[moe](G)[sp].d(C)[sp].d(A)[sp].d(T)[sp].d(A)[sp].d(G)[sp].d(C)[sp].d(A)[sp].d(G)[sp].d(C)[sp].[moe](A)[sp].[moe](G)}$$$$V2.0,48% and 51%
20,RNA1{[moe](T)[sp].[moe](G)[sp].[moe](A)[sp].[moe](G)[sp].d(G)[sp].d(C)[sp].d(A)[sp].d(T)[sp].d(A)[sp].d(G)[sp].d(C)[sp].d(A)[sp].d(G)[sp].[moe](C)[sp].[moe](A)[sp].[moe](G)[sp].[moe](G)}$$$$V2.0,38% and 40%
21,RNA1{[moe](T)[sp].[moe](G)[sp].[moe](A)[sp].[moe](G)[sp].d(G)[sp].d(C)[sp].d(A)[sp].d(T)[sp].d(A)[sp].d(G)[sp].d(C)[sp].d(A)[sp].d(G)[sp].[moe](C)[sp].[moe](A)[sp].[moe](G)}$$$$V2.0,56% and 53%
22,RNA1{[moe](T)[sp].[moe](G)[sp].[moe](A)[sp].d(G)[sp].d(G)[sp].d(C)[sp].d(A)[sp].d(T)[sp].d(A)[sp].d(G)[sp].d(C)[sp].d(A)[sp].d(G)[sp].[cEt](C)[sp].[cEt](A)[sp].[cEt](G)}$$$$V2.0,59% and 61%
23,RNA1{[moe](T)[sp].[moe](G)[sp].[moe](C)[sp].[moe](A)[sp].[moe](G)[sp].d(A)[sp].d(G)[sp].d(G)[sp].d(T)[sp].d(G)[sp].d(A)[sp].d(A)[sp].d(G)[sp].d(C)[sp].[moe](G)[sp].[moe](A)[sp].[moe](A)}$$$$V2.0,55% and 56%
24,RNA1{[moe](T)[sp].[moe](G)[sp].[moe](C)[sp].[moe](A)[sp].d(G)[sp].d(A)[sp].d(G)[sp].d(G)[sp].d(T)[sp].d(G)[sp].d(A)[sp].d(A)[sp].d(G)[sp].[moe](C)[sp].[moe](G)[sp].[moe](A)[sp].[moe](A)}$$$$V2.0,68% and 58%
25,RNA1{[moe](T)[sp].[moe](G)[sp].[moe](C)[sp].[moe](A)[sp].d(G)[sp].d(A)[sp].d(G)[sp].d(G)[sp].d(T)[sp].d(G)[sp].d(A)[sp].d(A)[sp].d(G)[sp].[moe](C)[sp].[moe](G)[sp].[moe](A)}$$$$V2.0,60% and 68%
26,RNA1{[moe](T)[sp].[moe](G)[sp].d(A)[sp].d(G)[sp].d(G)[sp].d(C)[sp].d(A)[sp].d(T)[sp].d(A)[sp].d(G)[sp].d(C)[sp].[moe](A)[sp].[moe](G)[sp].[moe](C)[sp].[moe](A)[sp].[moe](G)[sp].[moe](G)}$$$$V2.0,73% and 72%
27,RNA1{[moe](T)[sp].[moe](T)[sp].[moe](C)[sp].[moe](C)[sp].[moe](G)[sp].d(C)[sp].d(A)[sp].d(G)[sp].d(T)[sp].d(A)[sp].d(T)[sp].d(G)[sp].d(G)[sp].d(A)[sp].[moe](T)[sp].[moe](C)}$$$$V2.0,59% and 58%
28,RNA1{[moe](T)[sp].[moe](T)[sp].[moe](T)[sp].[moe](A)[sp].[moe](T)[sp].d(G)[sp].d(C)[sp].d(C)[sp].d(T)[sp].d(A)[sp].d(C)[sp].d(A)[sp].d(G)[sp].d(C)[sp].[moe](C)[sp].[moe](T)}$$$$V2.0,53% and 37%
29,RNA1{[moe](T)[sp].[moe](T)[sp].[moe](T)[sp].d(A)[sp].d(T)[sp].d(G)[sp].d(C)[sp].d(C)[sp].d(T)[sp].d(A)[sp].d(C)[sp].d(A)[sp].[moe](G)[sp].[moe](C)[sp].[moe](C)[sp].[moe](T)}$$$$V2.0,51% and 38%

# Molecular target: KRAS
# Settings: ASO, A431, 2 µM
row,Substance,target mRNA inhibition
1,"AAAAATTAATGTCTTG (sugars k3 d10 k3, PS)",20%
2,"AAAAGCTATTAGGAGT (sugars k3 d10 k3, PS)",25%
3,"AAATTAGTGATTAGGT (sugars k3 d10 k3, PS)",5%
4,"AACCATTCAAAGTTCA (sugars k3 d10 k3, PS)",35%
5,"AACGAGAATGGATATT (sugars k3 d10 k3, PS)",4%
6,"AAGGTAAAAGCTAACA (sugars k3 d10 k3, PS)",21%
7,"AAGTGTTTATGCAATG (sugars k3 d10 k3, PS)",45%
8,"AATAGTTTCCATTGCC (sugars k3 d10 k3, PS)",56%
9,"AATGTCACAAGCAGAA (sugars k3 d10 k3, PS)",49%
10,"AATTAATGTCTTGGCA (sugars k3 d10 k3, PS)",12%
11,"ACAGATTGTGCTGAGC (sugars k3 d10 k3, PS)",46%
12,"ACCAGTGTTAAGAGAA (sugars kkddddddddkekekk, PS)",52%
13,"ACCATTCAAAGTTCAC (sugars k3 d9 k3 e1, PS)",42%
14,"ACGAGAATGGATATTC (sugars k3 d10 k3, PS)",29%
15,"ACTAATAGCAGTGGAA (sugars k3 d10 k3, PS)",27%
